The nature of series [1]: Acute toxicity (DL 50) in mice. The note with it: in vivo, ip, mouse, i.p., read-out: DL 50 souris. From the text:
Pour illustrer l'invention, on a rassemblé dans le tableau III ci-après les résultats obtenus dans ces deux tests avec quelques composés selon l'invention. Ce tableau donne en outre la toxicité aiguë (DL 50) des composés testés.

The subject of series [2] is souris. The series can be described thus: Phenylbenzoquinone test (analgesic activity), protocol of Siegmund. The note with it: ip, mouse, i.p., read-out: Propriétés analgésiques DE 50. The series is classed as in vivo.
The subject of series [3] is souris. The experiment in a line: Antagonism of reserpine-induced ptosis (antidepressant activity), protocol of Gouret and Thomas. The format is in vivo. Conditions: ip, 1 h; mouse, i.p.; ptosis observed one hour after reserpine 2 mg/kg i.v.; read-out: Propriétés antidépressives DE 50.
Experimental: L'activité antidépressive a quant à elle été mise en évidence chez la souris par le test de l'antagonisme vis-à-vis du ptosis observé une heure après une injection intraveineuse (2 mg/kg) de réserpine chez la souris selon le protocole décrit par C.

In the case of `CN(C)Cc1cc(-c2ccccc2)c2ccccc2c1` [Numéro de code 2, chlorhydrate de N,N-diméthylaminométhyl-2 phényl-4 naphtalène], the LD50 in series [1] amounted to 70 mg/kg. The ED50 was 4.5 mg/kg in the series on souris [2] and 5.3 mg/kg in the series on souris [3].

`NCCc1cc(-c2ccccc2)c2ccccc2c1` [Numéro de code 9, chlorhydrate de l'(amino-2) éthyl-2 phényl-4 naphtalène]: in series [1], the LD50 stood at 58 mg/kg. Moreover, the ED50 with souris [2] was 2.2 mg/kg; with souris [3] it was 3 mg/kg.

For the origin of these results see patent publication EP0100257A2, “Aminoalkyl naphthalene derivatives, their salts, process for their preparation and the therapeutical use of these derivatives and salts” (DELALANDE S.A., priority 1982, dated 1984).
